Structures can show the parent of a compound that is named as a salt.
Biological target: T1, human HSD-1 (recombinant HSD-1) (Homo sapiens, UniProt P28845)
T1 construct: made in house
Experiment: HSD-1 activity inhibitory action in vitro (SPA, conversion of cortisone to cortisol)
Format: biochemical
Conditions: recombinant human HSD-1 expressed using baculovirus system; 10 nM 3H cortisone, 500 μM NADPH; room temperature 90 to 120 min; read-out: hHSD1 (IC50 (nM))

T1 sequence (P28845 whole entry): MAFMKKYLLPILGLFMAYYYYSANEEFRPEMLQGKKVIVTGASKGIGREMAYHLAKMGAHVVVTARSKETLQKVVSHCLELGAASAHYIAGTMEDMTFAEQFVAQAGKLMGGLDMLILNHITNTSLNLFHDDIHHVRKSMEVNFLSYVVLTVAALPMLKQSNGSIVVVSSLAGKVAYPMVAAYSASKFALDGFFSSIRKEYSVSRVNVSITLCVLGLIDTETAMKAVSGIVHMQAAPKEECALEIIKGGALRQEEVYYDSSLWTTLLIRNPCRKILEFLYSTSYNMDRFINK

| IC50 | SMILES |
| --- | --- |
| < 30 nM | C[C@@H]1CN(C(=O)c2cnn(C3CCN(c4ncccn4)CC3)c2C2(C)CC2)C[C@H]1c1ccccc1 (relative stereo) [Example 177, {(3S*,4R*)-3-methyl-1-{5-(1-methylcyclopropyl)-1-[1-(pyrimidin-2-yl)piperidin-4-yl]-1H-pyrazole-4-carbonyl}-4-phenylpyrrolidine hydrochloride] |
| < 30 nM | CC1(c2c(C(=O)N3CCC(CO)(c4ccc(F)cc4)C3)cnn2C2CCN(c3ncccn3)CC2)CC1 (single isomer, unassigned; (+)) [Example 128, (+)-3-(4-fluorophenyl)-3-hydroxymethyl-1-{5-(1-methylcyclopropyl)-1-[1-(pyrimidin-2-yl)piperidin-4-yl]-1H-pyrazole-4-carbonyl}pyrrolidine hydrochloride] |
| < 30 nM | O=C(c1cnn(C2CCNCC2)c1C1CC1)N1CC[C@@H](c2ccccc2C(F)(F)F)C1 [Example 2, 1-[5-cyclopropyl-1-(piperidin-4-yl)-1H-pyrazole-4-carbonyl]-[(S)-3-(2-trifluoromethylphenyl)]pyrrolidine hydrochloride] |
| < 30 nM | O=C(Nc1ccccc1F)N1CCC(n2ncc(C(=O)N3CCC(c4cccnc4)C3)c2C2CC2)CC1 (stereo not drawn) [Example 3, 1-{5-cyclopropyl-1-[1-(2-fluorophenylcarbamoyl)piperidin-4-yl]-1H-pyrazole-4-carbonyl}-3-(pyridin-3-yl)pyrrolidine] |
| < 30 nM | NC(=O)N1CCC(n2ncc(C(=O)N3CC[C@@H](c4ccccc4C(F)(F)F)C3)c2C2CC2)CC1 [Example 4, 1-[1-(1-carbamoylpiperidin-4-yl)-5-cyclopropyl-1H-pyrazole-4-carbonyl]-[(S)-3-(2-trifluoromethylphenyl)]pyrrolidine] |
| < 30 nM | O=C(Nc1ccccc1CO)N1CCC(n2ncc(C(=O)N3CC[C@@H](c4ccccc4C(F)(F)F)C3)c2C2CC2)CC1 [Example 6, 1-{5-cyclopropyl-1-[1-(2-hydroxymethylphenylcarbamoyl)piperidin-4-yl]-1H-pyrazole-4-carbonyl}-[(S)-3-(2-trifluoromethylphenyl)]pyrrolidine] |
| < 30 nM | O=C(NC1(CO)CC1)N1CCC(n2ncc(C(=O)N3CC[C@@H](c4ccccc4C(F)(F)F)C3)c2C2CC2)CC1 [Example 7, 1-{5-cyclopropyl-1-[1-(1-hydroxymethylcyclopropylcarbamoyl)piperidin-4-yl]-1H-pyrazole-4-carbonyl}-[(S)-3-(2-trifluoromethylphenyl)]pyrrolidine] |
| < 30 nM | O=C(NCCO)N1CCC(n2ncc(C(=O)N3CC[C@@H](c4ccccc4C(F)(F)F)C3)c2C2CC2)CC1 [Example 8, 1-{5-cyclopropyl-1-[1-(2-hydroxyethylcarbamoyl)piperidin-4-yl]-1H-pyrazole-4-carbonyl}-[(S)-3-(2-trifluoromethylphenyl)]pyrrolidine] |
| < 30 nM | CC(C)(CO)NC(=O)N1CCC(n2ncc(C(=O)N3CC[C@@H](c4ccccc4C(F)(F)F)C3)c2C2CC2)CC1 [Example 9, 1-{5-cyclopropyl-1-[1-(2-hydroxy-1,1-dimethylethylcarbamoyl)piperidin-4-yl]-1H-pyrazole-4-carbonyl}-[(S)-3-(2-trifluoromethylphenyl)]pyrrolidine] |
| < 30 nM | CC(=O)NCCNC(=O)N1CCC(n2ncc(C(=O)N3CC[C@@H](c4ccccc4C(F)(F)F)C3)c2C2CC2)CC1 [Example 10, 1-{1-[1-(2-acetylaminoethylcarbamoyl)piperidin-4-yl]-5-cyclopropyl-1H-pyrazole-4-carbonyl}-[(S)-3-(2-trifluoromethylphenyl)]pyrrolidine] |
| < 30 nM | NCCNC(=O)N1CCC(n2ncc(C(=O)N3CC[C@@H](c4ccccc4C(F)(F)F)C3)c2C2CC2)CC1 [Example 11, 1-{1-[1-(2-aminoethylcarbamoyl)piperidin-4-yl]-5-cyclopropyl-1H-pyrazole-4-carbonyl}-[(S)-3-(2-trifluoromethylphenyl)]pyrrolidine hydrochloride] |
| < 30 nM | O=C(c1cnn(C2CCN(C(=O)N3CCS(=O)(=O)CC3)CC2)c1C1CC1)N1CC[C@@H](c2ccccc2C(F)(F)F)C1 [Example 12, 1-{5-cyclopropyl-1-[1-(1,1-dioxothiomorpholine-4-carbonyl)piperidin-4-yl]-1H-pyrazole-4-carbonyl}-[(S)-3-(2-trifluoromethylphenyl)]pyrrolidine] |
| < 30 nM | CN(C)CCNC(=O)N1CCC(n2ncc(C(=O)N3CC[C@@H](c4ccccc4C(F)(F)F)C3)c2C2CC2)CC1 [Example 13, 1-{5-cyclopropyl-1-[1-(2-dimethylaminoethylcarbamoyl)piperidin-4-yl]-1H-pyrazole-4-carbonyl}-[(S)-3-(2-trifluoromethylphenyl)]pyrrolidine hydrochloride] |
| < 30 nM | O=C(c1cnn(C2CCN(C(=O)N3CCC(O)CC3)CC2)c1C1CC1)N1CC[C@@H](c2ccccc2C(F)(F)F)C1 [Example 14, 1-{5-cyclopropyl-1-[1-(4-hydroxypiperidine-1-carbonyl)piperidin-4-yl]-1H-pyrazole-4-carbonyl}-[(S)-3-(2-trifluoromethylphenyl)]pyrrolidine] |
| < 30 nM | O=C(c1cnn(C2CCN(C(=O)N3CCC3)CC2)c1C1CC1)N1CC[C@@H](c2ccccc2C(F)(F)F)C1 [Example 15, 1-{1-[1-(azetidine-1-carbonyl)piperidin-4-yl]-5-cyclopropyl-1H-pyrazole-4-carbonyl}-[(S)-3-(2-trifluoromethylphenyl)]pyrrolidine] |
| < 30 nM | O=C(c1cnn(C2CCN(C(=O)N3CCC(O)C3)CC2)c1C1CC1)N1CC[C@@H](c2ccccc2C(F)(F)F)C1 (stereo partly drawn) [Example 16, 1-{5-cyclopropyl-1-[1-(3-hydroxypyrrolidine-1-carbonyl)piperidin-4-yl]-1H-pyrazole-4-carbonyl}-[(S)-3-(2-trifluoromethylphenyl)]pyrrolidine] |
| < 30 nM | O=C(NCCN1CCCCC1)N1CCC(n2ncc(C(=O)N3CC[C@@H](c4ccccc4C(F)(F)F)C3)c2C2CC2)CC1 [Example 17, 1-{5-cyclopropyl-1-[1-(2-piperidin-1-yl-ethylcarbamoyl)piperidin-4-yl]-1H-pyrazole-4-carbonyl}-[(S)-3-(2-trifluoromethylphenyl)]pyrrolidine hydrochloride] |
| < 30 nM | O=C(c1cnn(C2CCN(C(=O)N3CCC(F)(F)CC3)CC2)c1C1CC1)N1CC[C@@H](c2ccccc2C(F)(F)F)C1 [Example 18, 1-{5-cyclopropyl-1-[1-(4,4-difluoropiperidine-1-carbonyl)piperidin-4-yl]-1H-pyrazole-4-carbonyl}-[(S)-3-(2-trifluoromethylphenyl)]pyrrolidine] |
| < 30 nM | O=C(c1cnn(C2CCN(C(=O)N3CCC(F)(F)C3)CC2)c1C1CC1)N1CC[C@@H](c2ccccc2C(F)(F)F)C1 [Example 19, 1-{5-cyclopropyl-1-[1-(3,3-difluoropyrrolidine-1-carbonyl)piperidin-4-yl]-1H-pyrazole-4-carbonyl}-[(S)-3-(2-trifluoromethylphenyl)]pyrrolidine] |
| < 30 nM | O=C(c1cnn(C2CCN(C(=O)N3CC(O)C3)CC2)c1C1CC1)N1CC[C@@H](c2ccccc2C(F)(F)F)C1 [Example 20, 1-{5-cyclopropyl-1-[1-(3-hydroxyazetidine-1-carbonyl)piperidin-4-yl]-1H-pyrazole-4-carbonyl}-[(S)-3-(2-trifluoromethylphenyl)]pyrrolidine] |
| < 30 nM | O=C(c1cnn(C2CCN(C(=O)N3CC[C@@H](O)C3)CC2)c1C1CC1)N1CC[C@@H](c2ccccc2C(F)(F)F)C1 [Example 21, 1-(5-cyclopropyl-1-{1-[(R)-3-hydroxypyrrolidine-1-carbonyl]piperidin-4-yl}-1H-pyrazole-4-carbonyl)-[(S)-3-(2-trifluoromethylphenyl)]pyrrolidine] |
| < 30 nM | O=C(c1cnn(C2CCN(C(=O)N3CC[C@H](O)C3)CC2)c1C1CC1)N1CC[C@@H](c2ccccc2C(F)(F)F)C1 [Example 22, 1-(5-cyclopropyl-1-{1-[(S)-3-hydroxypyrrolidine-1-carbonyl]piperidin-4-yl}-1H-pyrazole-4-carbonyl)-[(S)-3-(2-trifluoromethylphenyl)]pyrrolidine] |
| < 30 nM | C[C@@H](CO)NC(=O)N1CCC(n2ncc(C(=O)N3CC[C@@H](c4ccccc4C(F)(F)F)C3)c2C2CC2)CC1 [Example 23, 1-(5-cyclopropyl-1-{1-[(S)-2-hydroxy-1-methylethylcarbamoyl]piperidin-4-yl}-1H-pyrazole-4-carbonyl)-[(S)-3-(2-trifluoromethylphenyl)]pyrrolidine] |
| < 30 nM | O=C(c1cnn(C2CCN(C(=O)N3CCC(CO)CC3)CC2)c1C1CC1)N1CC[C@@H](c2ccccc2C(F)(F)F)C1 [Example 24, 1-{5-cyclopropyl-1-[1-(4-hydroxymethylpiperidine-1-carbonyl)piperidin-4-yl]-1H-pyrazole-4-carbonyl}-[(S)-3-(2-trifluoromethylphenyl)]pyrrolidine] |
| < 30 nM | O=C(O)C1CCN(C(=O)N2CCC(n3ncc(C(=O)N4CC[C@@H](c5ccccc5C(F)(F)F)C4)c3C3CC3)CC2)CC1 [Example 25, 1-{1-[1-(4-carboxypiperidine-1-carbonyl)piperidin-4-yl]-5-cyclopropyl-1H-pyrazole-4-carbonyl}-[(S)-3-(2-trifluoromethylphenyl)]pyrrolidine] |
| < 30 nM | O=C1CN(C(=O)N2CCC(n3ncc(C(=O)N4CC[C@@H](c5ccccc5C(F)(F)F)C4)c3C3CC3)CC2)CCN1 [Example 26, 1-{5-cyclopropyl-1-[1-(3-oxopiperazine-1-carbonyl)piperidin-4-yl]-1H-pyrazole-4-carbonyl}-[(S)-3-(2-trifluoromethylphenyl)]pyrrolidine] |
| < 30 nM | O=C(c1cnn(C2CCN(C(=O)N3CCC[C@H]3CO)CC2)c1C1CC1)N1CC[C@@H](c2ccccc2C(F)(F)F)C1 [Example 27, 1-(5-cyclopropyl-1-{1-[(S)-2-hydroxymethylpyrrolidine-1-carbonyl]piperidin-4-yl}-1H-pyrazole-4-carbonyl)-[(S)-3-(2-trifluoromethylphenyl)]pyrrolidine] |
